In patent US20210060044A1, “METHODS FOR TREATING BLADDER CANCER BY ACTIVATION OF HEDGEHOG SIGNALING USING A M[…]” (POSTECH Research and Business Development Foundation, priority 2019, published 2021):
Read-outs that look alike come from different tables or passages of the source.

Assays:
Shh gene [1] = conditions: orthotopic BBN-induced mouse tumor, 1 mg per kg every other day for 2 weeks
Method: (§1) Human or mouse bladder samples were snap-frozen in liquid nitrogen, homogenized with a mortar and a pestle, and RNA was extracted using an RNeasy Plus Mini Kit (Qiagen).
(§2) Subsequently, the RNA samples were dissolved in RNase-free water, and their concentration and purity were measured with a spectrophotometer. The TAE/formamide electrophoresis method (Masek et al., 2005) was used for RNA quality analysis. For quantitative RT-PCR of mRNA transcripts, first-strand cDNA was synthesized using a high-capacity cDNA reverse transcriptase kit (Applied Biosystems) containing oligo dT. Quantitative RT-PCR was performed using SYBR Green Supermix (Applied Biosystems) and a one-step cycler (Applied Biosystems), and gene expression was normalized to the housekeeping gene HPRT1.

Shh gene [2] = conditions: tumor organoids, 1 μM for four consecutive days
Method: as §2

[3] = tested on: BBN-induced bladder tumor cells; conditions: nude mice, treated 2 weeks
From the text: (§3) To evaluate the effect of DNA methyltransferase inhibition on the growth of bladder cancer under immunocompromised conditions, nude mice (14 mice) orthotopically injected with BBN-induced bladder tumor cells were divided into a vehicle control (7 mice) and a 5′-azacitidine-treated group (7 mice), and then treated with a vehicle and 5′-azacitidine for 2 weeks, respectively. In addition, allograft sections of the vehicle control or 5′-azacitidine-treated mice were subjected to H&E staining, and the experimental scheme is shown in FIG. 4A.

Ck18 = conditions: tumor allografts, nude mice
From the text: as §3

[4] = tested on: luminal markers (Upk1a, Upk1b, Upk2, Upk3a, Upk3b, Krt20, Krt18); conditions: tumor allografts; normalized to Krt5
Method: as §1, §2, §3

[5] = tested on: luminal and basal signatures; conditions: tumor allografts, RNA-Seq
Method: Total RNA was extracted with a TRIzol reagent (Thermo Fisher) according to the manufacturer's instructions. RNA-seq libraries were constructed using the TruSeq sample prep kit V2 (Illumina). […] The RNA-seq libraries were sequenced using a NextSeq platform with 75-bp single-end reads.
Differentially expressed genes were analyzed using Cufflinks tools (Trapnell et al., 2012). From all annotated genes, genes were removed when the rpkm average of all sequenced samples is less than 1.0, such that the depth to which the genes are assigned may be low. GSEA was performed according to the instructions (RRID: SCR_003199). To generate a customized gene set for a luminal marker and a basal marker, a representative gene for each signature was obtained from a previous study (Damrauer et al., 2014). The RNA-seq data set used herein was deposited in NCBI GEO (Accession No.: GSE129441).
In addition, using standard luminal and basal signatures obtained from previous research, GSEA of tumor allografts treated with the vehicle control and 5′-azacitidine from RNA-Seq data was performed.

J82 = tested on: J82
Method: (§4) Frozen human bladder tissue samples were obtained from the tissue bank of Seoul National University Hospital. For fresh bladder tumor samples, 0.5 to 1-cm^3 bladder tissue specimens were obtained from patients undergoing cystectomy or TURBT according to a protocol approved by the SNUH Institutional Review Board (IRB No.: 1607-135-777). Informed consent to patient information provision and publishing was obtained from the patients. The cancer tissues were evaluated before transport to POSTECH for additional analysis. For experiments for bladder cancer cell lines, J82 (RRID: CVCL_0359), T24 (RRID: CVCL_0554) and TCC (RRID: CVCL_1738) were used. All cell lines were authenticated by a STR profiling method, and tested negative for mycoplasma contamination.
as §2

T24 = tested on: T24
Method: as §4, §2

TCC-SUP = tested on: TCC-SUP
Method: as §4, §2

J82 cells = conditions: J82 orthotopic xenograft, treated one month; vehicle: full-fledged muscle-invasive carcinoma
Method: (§5) To investigate the functional role of SHH expression in the growth of human bladder tumors and the effects of the Hh/BMP signaling feedback between tumors and the stroma on the subtype conversion of human muscle-invasive urothelial carcinoma, xenografts in which J82 cells were orthotopically injected into immunocompromised mice (NOD/SCID/IL2Rgnull) (14 mice) were treated with 5′-azacitidine for one month, and orthotopic xenografts in the mice treated with the vehicle control (7 mice) or 5′-azacitidine (7 mice) were subjected to H&E staining.

[6] = tested on: luminal markers (FOXA1 and GATA3) and basal markers (CDH3 and KRT6A); conditions: J82 tumor xenografts
Method: as §2, §5

[7] = tested on: CpG shore upstream of the CpG island of the Shh promoter region; conditions: 1 mg per kg every other day for 2 weeks; vehicle control 62%
Method: (§6) The mice were administered 8 mg of tamoxifen (TM; Sigma) per 30 g of body weight by oral gavage for three consecutive days. Male mice aged 8 to 10 weeks were used. […] In each experiment, the mice were randomly selected for a drug/TM or control-treated group. The experiments involving mice were performed under isoflurane anesthesia.
The DNA methylation status of mouse and human Shh was confirmed using genomic DNA bisulfite sequencing. For bisulfite conversion, 1 μg of genomic DNA was converted using a MethylEdge Bisulfite Conversion System (Promega) according to the manufacturer's instructions. The genomic sequences of the regulatory regions of mouse Shh and human SHH were obtained from the NCBI nucleotide database (Mus musculus: NC_000071.6, Homo sapiens: NG_007504.2), and the CpG island (island) and CpG shores in the regulatory region were identified using Methprimer 2.0 (Li and Dahiya, 2002) (RRID: SCR_010269). The 2kb regions upstream and downstream of the CpG island were referred to as a “CpG upshore” and a “CpG downshore,” respectively. […]
(§7) The sequencing data was assembled using SnapGene software (https://snapgene.com/, RRID: SCR_015053) and the MUSCLE: multiple sequence alignment tool (haps://www.ebi.ac.uk/Tools/msa/muscle/ RRID: SCR_011812). […] The methylated CpG sites were counted and distinguished from unmethylated CpG sites.

[8] = tested on: CpG shore upstream of the CpG island of the Shh promoter region; conditions: tumor organoids, 1 μM for four consecutive days; vehicle control 73%
Method: The DNA methylation status of mouse and human Shh was confirmed using genomic DNA bisulfite sequencing. For bisulfite conversion, 1 μg of genomic DNA was converted using a MethylEdge Bisulfite Conversion System (Promega) according to the manufacturer's instructions. The genomic sequences of the regulatory regions of mouse Shh and human SHH were obtained from the NCBI nucleotide database (Mus musculus: NC_000071.6, Homo sapiens: NG_007504.2), and the CpG island (island) and CpG shores in the regulatory region were identified using Methprimer 2.0 (Li and Dahiya, 2002) (RRID: SCR_010269). […]
as §7
BBN-induced bladder tumors were minced, and then incubated in DMEM (Gibco) containing collagenase I and II (20 mg/ml each) and thermolysin (250 KU/ml) at 37° C. for 2 hours, followed by 5-minute trituration every 30 minutes. […] After lysis of red blood cells in ACK lysis buffer (Gibco), the cells were washed with DMEM containing 10% fetal bovine serum (Millipore) and counted using a hemocytometer (Sigma). […]

[9] = tested on: BBN-induced invasive carcinoma; conditions: BBN 4 months, then treatment 2 months with continued BBN; found in vehicle control
Method: as §6
(§8) 0.1% N-butyl-N-4-hydroxybutyl nitrosamine (BBN, TCI) was dissolved in drinking water, and the BBN-containing water was placed in a dark bottle, and provided ad libitum to mice for 4 to 6 months. The BBN-containing water was replaced twice a week. Bladders were collected and analyzed 4 to 6 months after BBN administration.
(§9) Tumor specimens were fixed in 10% neutral-buffered formalin for 12 hours, embedded in paraffin, and then sectioned into 4-um thick sections using a microtome. The slides were stained with hematoxylin and counter-stained with eosin for histological analysis. For immunostaining, tumor samples were embedded in an OCT compound (Tissue-Tek) and sectioned into 10-um-thick sections with a cryostat (Leica).

[10] = tested on: BBN-induced muscle-invasive urothelial carcinoma; conditions: Col1a2CreER;Smoflox/flox or Col1a2CreER;Gli2flox/flox mice, BBN 6 months
Method: (§10) For a gene deletion experiment, Col1a2^CreER (RRID: IMSR_JAX: 029235) mice were mated with the Smo^flox/flox (RRID: IMSR_JAX: 007926) or Gli2^flox/flox (RRID: IMSR_JAX: 004526) strains, thereby obtaining Col1a2^CreER; Smo^flox/flox or Col1a2^CreER;Gli2^flox/flox mice.
The mice were administered 8 mg of tamoxifen (TM; Sigma) per 30 g of body weight by oral gavage for three consecutive days. Male mice aged 8 to 10 weeks were used. […] In each experiment, the mice were randomly selected for a drug/TM or control-treated group. The experiments involving mice were performed under isoflurane anesthesia. All procedures were performed according to a protocol approved by the Institutional Animal Care and Use Committee at POSTECH (IACUC number: POSTECH-2017-0094).
as §8

[11] = tested on: BBN-induced bladder tumor cells
Method: as §6
Bladder tumors were dissociated into single cells as described above. The cells were resuspended in 80 ml DMEM containing 50% Matrigel (BD Bioscience), and then submucosally injected into the anterior aspect of the bladder dome using a 29-gauge insulin syringe.
as §9
To evaluate the effect of the inhibition of DNA methyltransferase (DNMT) on the growth of bladder cancer, recently established transplantation models were used, and these models allow the proliferation of tumor cells transplanted in a microenvironment in vivo by injecting bladder cancer cells into the wall of the bladder dome.

BBN-induced tumors = conditions: TM three days, transplantation, treatment 1.5 months
Method: as §10
The mice were administered 8 mg of tamoxifen (TM; Sigma) per 30 g of body weight by oral gavage for three consecutive days. Male mice aged 8 to 10 weeks were used. […] The dosing duration is described in the brief description of the drawings. In each experiment, the mice were randomly selected for a drug/TM or control-treated group. The experiments involving mice were performed under isoflurane anesthesia.
Bladder tumors were dissociated into single cells as described above. The cells were resuspended in 80 ml DMEM containing 50% Matrigel (BD Bioscience), and then submucosally injected into the anterior aspect of the bladder dome using a 29-gauge insulin syringe. An abdominal incision and skin were closed with a 4-0 nylon suture, and the surgical site was disinfected with alcohol. Bladder tumor organoids were selected, and resuspended in a 50% organoid medium and 50%

Nc1ncn([C@@H]2O[C@H](CO)[C@@H](O)[C@H]2O)c(=O)n1 [5′-azacitidine]
Shh gene expression level, increase compared to the vehicle control (Shh gene [1]): 11 fold | Shh gene expression level, increase compared to the vehicle control (Shh gene [2]): 9 fold | tumor lesions compared with untreated group (H&E) [3]: smaller tumor lesions | expression of luminal subtype marker Ck18 (immunostaining) (Ck18): increased | Krt18 expression, increase compared with the vehicle control [4]: 2 fold | Krt20 expression, increase compared with the vehicle control [4]: 1.5 fold | Upk1a expression, increase compared with the vehicle control [4]: 3 fold | Upk1b expression, increase compared with the vehicle control [4]: 2 fold | Upk2 expression, increase compared with the vehicle control [4]: 2 fold | Upk3a expression, increase compared with the vehicle control [4]: 2.5 fold | Upk3b expression, increase compared with the vehicle control [4]: 2 fold | basal marker expression (GSEA) [5]: relatively low level | luminal signature (GSEA) [5]: strong luminal signature | SHH expression, increase compared with untreated control (J82): 6 fold | SHH expression, increase compared with untreated control (T24): 7 fold | SHH expression, increase compared with untreated control (TCC-SUP): 3 fold | cancer lesions in the bladder (H&E) (J82 cells): much smaller cancer lesions | basal marker CDH3 expression, decrease compared with the vehicle [6]: 6 fold | basal marker KRT6A expression, decrease compared with the vehicle [6]: 9 fold | luminal marker FOXA1 expression, increase compared with the vehicle [6]: 1.8 fold | luminal marker GATA3 expression, increase compared with the vehicle [6]: 1.8 fold | methylation level in the CpG shore upstream of the CpG island of the Shh promoter region [7]: 36% | methylation level in the CpG shore upstream of the CpG island of the Shh promoter region [8]: 43% | invasive carcinoma (H&E) [9]: not found | anticancer initiation effect in TM-treated group (stromal Hh response removed) [10]: reversed | growth of bladder tumors ([11]; immunocompetent wild-type mice): completely inhibits | invasive carcinoma (H&E) ([11]; treated for 1.5 months, appeared in vehicle control): no invasive carcinoma appeared | anticancer propagation effect in strains with genetically inhibited stromal Hh signaling pathway (BBN-induced tumors): disappeared
